In article PMC11995222, “Synthesis and Evaluation of Thiazolidinone-Isatin Hybrids for Selective Inhibition of Cancer-Related Carbonic Anhydrases” (ACS Medicinal Chemistry Letters, 2025):
“Also recorded” adds a separate entry of the source.

Experiments:
[1] = Cellular toxicity assay (MTT); type: cell-based, human; conditions: human, HuH-7 cells, MTT
HuH-7 cells = assay: Cellular toxicity assay (MTT); type: cell-based, human; conditions: HuH-7 cells, 24, 48 and 72 h, up to 100 µM

Row | SMILES | CC50 at 24 h ([1]; 24h) | viability at 24 h, 100 µM ([1]; 24h, highest concentration (100 µM), read-out: Percentage of HuH-7 cells viability at the highest compound concentration tested, 24h) | CC50 at 48 h ([1]; 48h) | viability at 48 h, 100 µM ([1]; 48h, highest concentration (100 µM), read-out: Percentage of HuH-7 cells viability at the highest compound concentration tested, 48h) | CC50 at 72 h ([1]; 72h) | viability at 72 h, 100 µM ([1]; 72h, highest concentration (100 µM), read-out: Percentage of HuH-7 cells viability at the highest compound concentration tested, 72h) | toxicity (in words) (HuH-7 cells)
1 | NS(=O)(=O)c1ccc(/N=C2\S/C(=C3\C(=O)Nc4c(F)cccc43)C(=O)N2C2CC2)cc1 [compound 3h] | > 100 µM | 70% | > 100 µM | 60% | > 100 µM | 60% | weak toxicity; also recorded: nontoxic
2 | CC[C@@]1(O)C(=O)OCc2c1cc1n(c2=O)Cc2cc3ccccc3nc2-1 [Camptothecin, reference compound] | > 10 µM |  | 8.5 ± 0.9 µM |  | 0.5 ± 0.02 µM |  | 
